Reference: US20250152591A1, “TREATMENT OF HEMATOLOGICAL MALIGNANCIES WITH MENIN INHIBITORS AND P-GLYCOPROTEIN INHIBITORS” (Kura Oncology, Inc., priority 2022, published 2025)
Where two headings read alike, the source gives them in different places.

Columns and labels:
MV4;11-Control cell line = experiment: CellTiter-Glo cell viability assay, MV4;11-Control; type: cell-based; design: unit of the concentration uncertain
Method: The influence of efflux pumps on the antitumor activity of the test compounds at steady state (more clinically relevant) were evaluated using P-gp-transfected AML cells (MV4;11 cells) in 6-day viability assays.
A P-gp-expressing KMT2A(MLL)-rearranged cell line model was developed by lentiviral transduction of the MV4;11 parental cell line and then selection for either Luciferase ORF (MV4;11-Control) or P-gp ORF (MV4;11-PGP).
[…] Cell viability was measured by CellTiter-Glo® Luminescent Cell Viability Assay (CTG assay, Promega Corp.) and % Viability was quantified by normalizing to the luminescence values of DMSO-only treated cells. The dose-response curves and IC50's were calculated using GraphPad Prism 9.4.1.
The measured luminescence in the live cells of the MV4;11-Control and MV4;11-PGP cells that were treated with Compound I only (+DMSO), Compound I+posaconazole […], and valspodar (1 mM) are shown in FIGS. 5A and 5B.
In a second set of experiments, MV4;11-Control and MV4;11-PGP cell lines were treated as described above with five menin inhibitors, including Compound I, SNDX-5613, Compound A, Compound B, and Compound C, at concentrations ranging from 0 to 1000 nM. All tested compounds dropped in potency due to the P-gp expression as shown in FIGS. 6A-6J and in Tables 5 and 6 (indicated by increased IC50 values between “MV4;11-Control (Compound+DMSO)” and “MV4;11-PGP (Compound+DMSO)” entries).

P-gp = P-gp (Homo sapiens, UniProt P08183); experiment: P-gp substrate assessment using MDR1-MDCK monolayers (Example 1, +/- valspodar); type: in vitro ADME; design: expressed in transfected cells; host or cells: MDR1-MDCK cells
Method: MDR1-MDCK cell monolayers were grown to confluence on collagen-coated, microporous membranes in 12-well assay plates. Details of the plates and their certification are shown below. The permeability assay buffer was Hanks' balanced salt solution (HBSS) containing 10 mM HEPES and 15 mM glucose at a pH of 7.4. The buffer in the receiver chamber also contained 1% bovine serum albumin. The dosing solution concentration was 5 μM of test article in the assay buffer+/−1 μM valspodar. Cells were first pre-incubated for 30 min with HBSS containing+/−1 μM valspodar. Cell monolayers were dosed on the apical side (A-to-B) or basolateral side (B-to-A) and incubated at 37° C. with 5% CO2 in a humidified incubator. Samples were taken from the donor and receiver chambers at 120 min. Each determination was performed in duplicate. The flux of lucifer yellow was also measured post-experimentally for each monolayer to ensure no damage was inflicted to the cell monolayers during the flux period. All samples were assayed by LC-MS/MS using electrospray ionization. Liquid chromatography conditions are summarized as follows: Column: Thermo BDS Hypersil C18 30×2.1 mm, […], with guard column; M.P. Buffer: 25 mM ammonium formate buffer, pH 3.5; Aqueous Reservoir (A): 90% water, 10% buffer; Organic Reservoir (B): 90% acetonitrile, 10% buffer; Flow Rate: 350 μL/minute; Total run time: 3.5 min; Autosampler: 10 μL injection volume; Autosampler wash: water/methanol/2-propanol: 1/1/1; with 0.2% formic acid.
The apparent permeability (Papp) and percent recovery were calculated as follows: […]
where, • dCr/dt is the slope of the cumulative concentration in the receiver compartment versus time in μM s^−1; • Vr is the volume of the receiver compartment in cm^3; • Vd is the volume of the donor compartment in cm^3; • A is the area of the insert (1.13 cm^2 for 12-well); • CA is the average of the nominal dosing concentration and the measured 120 minute donor concentration in μM; • CN is the nominal concentration of the dosing solution in μM; • Cr^final is the cumulative receiver concentration in μM at the end of the incubation period; • Cd^final is the concentration of the donor in μM at the end of the incubation period.
Efflux ratio (ER) is defined as Papp (B-to-A)/Papp (A-to-B).
• ER≥2.0 without valspodar, and reduced by ≥50% with valspodar: Positive • ER≥2.0 without valspodar, and reduced by <50% with valspodar: Negative • ER<2.0 without and with valspodar: Negative

Chain of P-gp (P08183 whole entry): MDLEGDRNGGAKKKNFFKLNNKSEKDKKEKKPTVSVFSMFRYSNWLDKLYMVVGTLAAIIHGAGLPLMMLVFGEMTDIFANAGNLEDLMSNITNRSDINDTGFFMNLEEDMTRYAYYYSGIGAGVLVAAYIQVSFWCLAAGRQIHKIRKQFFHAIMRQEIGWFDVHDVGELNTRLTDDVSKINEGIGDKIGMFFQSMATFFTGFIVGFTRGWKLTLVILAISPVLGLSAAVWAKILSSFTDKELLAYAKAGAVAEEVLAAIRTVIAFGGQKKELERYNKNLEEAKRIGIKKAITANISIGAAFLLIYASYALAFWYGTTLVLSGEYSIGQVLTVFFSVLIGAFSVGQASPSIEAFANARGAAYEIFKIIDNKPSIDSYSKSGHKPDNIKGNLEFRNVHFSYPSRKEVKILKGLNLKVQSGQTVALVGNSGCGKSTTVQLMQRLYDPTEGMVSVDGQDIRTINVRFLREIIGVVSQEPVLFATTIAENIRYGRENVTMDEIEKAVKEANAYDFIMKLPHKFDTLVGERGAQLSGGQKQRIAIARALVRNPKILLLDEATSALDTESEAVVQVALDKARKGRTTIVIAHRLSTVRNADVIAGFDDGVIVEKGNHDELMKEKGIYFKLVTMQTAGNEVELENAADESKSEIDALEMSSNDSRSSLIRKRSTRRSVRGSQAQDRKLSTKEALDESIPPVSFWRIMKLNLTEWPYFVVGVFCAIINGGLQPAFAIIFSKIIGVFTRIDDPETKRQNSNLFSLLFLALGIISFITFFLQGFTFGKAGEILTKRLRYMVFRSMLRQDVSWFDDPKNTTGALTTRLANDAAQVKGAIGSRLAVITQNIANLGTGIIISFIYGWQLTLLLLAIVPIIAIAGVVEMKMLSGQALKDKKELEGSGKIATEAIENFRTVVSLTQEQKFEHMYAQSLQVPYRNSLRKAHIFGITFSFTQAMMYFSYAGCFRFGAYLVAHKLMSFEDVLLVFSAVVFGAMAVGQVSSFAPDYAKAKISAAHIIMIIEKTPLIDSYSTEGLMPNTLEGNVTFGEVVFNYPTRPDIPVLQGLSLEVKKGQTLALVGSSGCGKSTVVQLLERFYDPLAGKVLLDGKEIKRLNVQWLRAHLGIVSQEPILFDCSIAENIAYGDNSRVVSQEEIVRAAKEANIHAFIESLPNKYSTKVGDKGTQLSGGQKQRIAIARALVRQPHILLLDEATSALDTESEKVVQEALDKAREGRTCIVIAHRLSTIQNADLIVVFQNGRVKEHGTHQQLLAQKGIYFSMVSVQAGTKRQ

CNc1nc(NC2CCN(Cc3ccc4c(cc(C#N)n4C[C@H](C)N4CCN(S(C)(=O)=O)CC4)c3C)CC2)c2cc(CC(F)(F)F)sc2n1 [Compound I]
IC50 (MV4;11-Control cell line; 120 h, MV4;11-Control, 5 days, Table 4, read-out: IC50 (Compound I + DMSO)): 7.2 nM
IC50 (MV4;11-Control cell line; 120 h, MV4;11-Control, posaconazole (1.5 μM), 5 days, Table 4, read-out: IC50 (Compound I + Posaconazole)): 3.8 nM
IC50 (MV4;11-Control cell line; 120 h, MV4;11-Control, valspodar (1 μM), 5 days, Table 4, read-out: IC50 (Compound I + Valspodar)): 6.1 nM
IC50 (MV4;11-Control cell line; 144 h, Compound I only, 0 to 1000 nM, 6 days, Table 3, read-out: IC50 MV4;11-Control): 7.6 nM
IC50 (MV4;11-Control cell line; 144 h, second set of experiments, 0 to 1000 nM, Table 5, read-out: IC50 MV4;11-Control (Compound + DMSO)): 6.05 nM
IC50 (MV4;11-Control cell line; 144 h, second set of experiments, 0 to 1000 nM, Table 6, read-out: IC50 MV4;11-Control (Compound + DMSO)): 6.14 nM
IC50 (MV4;11-Control cell line; second set of experiments, posaconazole (1.5 (unit uncertain)), Table 5, read-out: IC50 MV4;11-Control (Compound + posaconazole)): 3.76 nM
IC50 (MV4;11-Control cell line; second set of experiments, valspodar (1 (unit uncertain)), Table 6, read-out: IC50 MV4;11-Control (Compound + valspodar)): 4.84 nM
Papp Avg (P-gp; A-to-B, without valspodar): 0.09 10^−6 cm/s
P-gp substrate (P-gp; MDR1-MDCK cell monolayers): substrate of P-gp
P-gp Substrate Classification (P-gp; MDR1-MDCK, ER without and with valspodar): Positive (ER≥2.0 without valspodar, and reduced by ≥50% with valspodar)
recovery at 120 min, 5 μM (P-gp; dog, MDCK-MDR1, pH 7.4, A-to-B, 5 μM test article, without valspodar): 70%
recovery at 120 min, 5 μM (P-gp; dog, MDCK-MDR1, pH 7.4, B-to-A, 5 μM test article, without valspodar): 83%
Papp B→A at 120 min, 5 μM (P-gp; dog, MDCK-MDR1, pH 7.4, B-to-A, without valspodar, read-out: Papp Avg): 9.41 ×10⁻⁶ cm/s
Papp B→A at 120 min, 5 μM (P-gp; dog, MDCK-MDR1, pH 7.4, B-to-A, without valspodar, read-out: Papp R1): 6.43 ×10⁻⁶ cm/s
Papp B→A at 120 min, 5 μM (P-gp; dog, MDCK-MDR1, pH 7.4, B-to-A, without valspodar, read-out: Papp R2): 9.21 ×10⁻⁶ cm/s
Papp B→A at 120 min, 5 μM (P-gp; dog, MDCK-MDR1, pH 7.4, B-to-A, without valspodar, read-out: Papp R3): 12.6 ×10⁻⁶ cm/s
recovery at 120 min, 5 μM (P-gp; dog, MDCK-MDR1, pH 7.4, with valspodar 1 μM, A-to-B, 5 μM test article + 1 μM valspodar): 53%
recovery at 120 min, 5 μM (P-gp; dog, MDCK-MDR1, pH 7.4, with valspodar 1 μM, B-to-A, 5 μM test article + 1 μM valspodar): 118%
Papp A→B at 120 min, 5 μM (P-gp; dog, MDCK-MDR1, pH 7.4, A-to-B, without valspodar): 0.09 ×10⁻⁶ cm/s
efflux ratio at 120 min, 5 μM (P-gp; dog, MDCK-MDR1, pH 7.4, Papp (B-to-A)/Papp (A-to-B), without valspodar): 105
